Consider 1 compound from PMC12596195, “Mei5–Sae3 stabilizes both active and inactive forms of Dmc1 filaments independently of its impact on ATP hydrolysis” (Nucleic Acids Research, 2025).

In one assay the target is T1, ScDmc1 (Dmc1–WT) (Saccharomyces cerevisiae, UniProt P25453).
T1 construct: N-terminal 6x-His tag (kept), expressed in E. coli; nucleoprotein filament on 90 nt ssDNA
T1 sequence (P25453 1-334): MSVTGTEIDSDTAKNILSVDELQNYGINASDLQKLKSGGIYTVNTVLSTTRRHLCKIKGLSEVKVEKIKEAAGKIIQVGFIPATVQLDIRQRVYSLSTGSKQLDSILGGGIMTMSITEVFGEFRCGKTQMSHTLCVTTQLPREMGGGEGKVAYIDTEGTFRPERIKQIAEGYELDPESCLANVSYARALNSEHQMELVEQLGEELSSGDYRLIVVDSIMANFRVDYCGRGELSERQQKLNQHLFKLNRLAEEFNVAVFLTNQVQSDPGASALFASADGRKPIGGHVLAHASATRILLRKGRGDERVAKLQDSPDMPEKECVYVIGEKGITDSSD
In words: nitrocellulose filter binding. The note with it: 3 µM Dmc1, 90 nt ssDNA (6 µM nt), 5 mM Mg2+, 70 µM Ca2+, pH 7.5, 30°C; labelled compound (alpha-32P); read-out: KD (apparent). The source says: nitrocellulose filter binding on ScDmc1 (Dmc1–WT) | Dmc1–WT binds ATP with the same apparent affinity in the presence and absence of Mei5–Sae3

For a further assay, the target named is T2, ScDmc1 (Saccharomyces cerevisiae, UniProt P25453, E157D).
T2 construct: gene DMC1; N-terminal 6x-His tag (kept), expressed in E. coli; nucleoprotein filament on 90 nt ssDNA
T2 sequence (P25453 1-334 E157D): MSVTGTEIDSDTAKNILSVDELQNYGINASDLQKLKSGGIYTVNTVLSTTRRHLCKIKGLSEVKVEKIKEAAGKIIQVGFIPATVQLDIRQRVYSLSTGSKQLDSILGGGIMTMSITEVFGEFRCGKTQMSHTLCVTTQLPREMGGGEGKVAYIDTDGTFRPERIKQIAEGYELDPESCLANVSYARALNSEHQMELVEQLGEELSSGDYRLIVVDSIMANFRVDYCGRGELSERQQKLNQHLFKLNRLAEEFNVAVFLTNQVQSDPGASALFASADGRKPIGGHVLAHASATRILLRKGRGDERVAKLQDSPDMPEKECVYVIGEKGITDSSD
In words: nitrocellulose filter binding. The note with it: 3 µM Dmc1, 90 nt ssDNA (6 µM nt), 5 mM Mg2+, 70 µM Ca2+, pH 7.5, 30°C; labelled compound (alpha-32P).

With `Nc1ncnc2c1ncn2[C@@H]1O[C@H](COP(=O)(O)OP(=O)(O)OP(=O)(O)O)[C@@H](O)[C@H]1O` [ATP], at ScDmc1 (Dmc1–WT), the Kd fell in the range of 5 to 6 µM. The nitrocellulose filter binding result at ScDmc1 is “ATP binding activity of Dmc1–E157D and found it was significantly reduced”.
